20 compounds from patent US12071411B2, “Inhibitors of HIF-2α and methods of use thereof” (ARCUS BIOSCIENCES, INC., priority 2021, dated 2024) can be followed below.

The target in test [1] is T1, HIF-2α (Homo sapiens, UniProt Q99814). As to the kind of experiment: HIF-2α Luciferase Reporter Assay (serum), HRE-luciferase 786-0 cells in 100% human serum. Conditions: for IC50: 100% human serum, 786-0 reporter cells, overnight incubation, read-out: Serum Potency. In kind it is cell-based. On the procedure: (§1) Generation of HIF-2α Luciferase 786-0 Cell Line:
(§2) Stable cell lines were generated by transducing 786-0 cells (ATCC, CRL-1932) with Cignal Lenti HIF Luc Reporter lentivirus (CLS-007L, Qiagen) according to the manufacturer's guidelines. In brief, 0.3×10^6 786-0 cells were transduced with lentivirus at a multiplicity of infection (MOI) of 25 for 24 hours. After transduction, cells were replenished with fresh RPMI 1640 Medium (Cat. No. 11875085, Thermo Fisher) supplemented with 10% FBS (Cat. No. A3160502, Gibco), 2 mM GlutaMAX™ (Cat. No. 35050-061, Invitrogen) and 100 units of penicillin and 100 μg of streptomycin/mL (Cat. No 15070063, Thermo Fisher) for another 24 hours. Antibiotic selection was performed in cell media containing 4 μg/mL of puromycin. After 7 days of antibiotic selection, stable pools of surviving cells were expanded and used in a luciferase reporter assay.
HIF-2α Luciferase Reporter Assay (Serum):
An HRE-luciferase stable reporter 786-0 cell line was maintained in active culture using RPMI 1640 (GIBCO) media supplemented with 1% penicillin-streptomycin, 1% GlutaMAX™, 10% FBS-One Shot (GIBCO) and 4 ug/ml of puromycin (Invitrogen). On the day of the assay, cells were harvested using StemPro™ Accutase™ cell dissociation reagent (GIBCO) and resuspended at 1.5 million cells per milliliter in Opti-MEM™ (GIBCO). 20 ul/well of the resuspended cells were dispensed into a 384 white tissue culture-treated microplate (Corning) and allowed to incubate at 37° C., 5% CO2 for 3 hours. Compounds were prepared by dispensing 0.8 ul of compound in 100% DMSO into a Greiner plate containing 40 ul/well of 100% human serum (Bioreclamation IVT). After 3 hours, media was removed via centrifugation at 500 RPM for 30 seconds and 30 ul/well of compound diluted in human serum was added. The plate was incubated overnight at 37° C., 5% CO2. The following day, ONE-Glo™ was prepared per vendors instructions. The cell plate was removed from the incubator and the human serum was removed from the plate using centrifugation at 500 RPM for 30 seconds. Following the removal of human serum, 40 ul/well of room temperature Opti-MEM™ was added to the plate and allowed to equilibrate to room temperature for 2 hours. 40 ul/well of ONE-Glo™ reagent was added and allowed to incubate for 10 minutes before reading the luminescence signal on the Envision (PerkinElmer). Data was analyzed using 4-parameter logistic equation to generate IC50.

The target in test [2] is T1, HIF-2α. The test is described as follows: HIF-2α Luciferase Reporter Assay (serum free) in HIF-Luc-786-0 cells. The format is cell-based. Conditions: Opti-MEM, 786-0 reporter cells, 20 hours incubation. As to the method:
as §1, §2
HIF-2α Luciferase Reporter Assay (Serum Free):
On day one, 20 uL of HIF-Luc-786-0 cells in Opti-MEM™ (Cat. No. 31985088, Thermo Fisher) were seeded into each well of a 384 well white opaque plate (Corning 3570) and incubated at 37° C. and 5% CO2. Twenty microliters of 2× test compounds in Opti-MEM™ were added to cells after 4 hours of incubation. Final assay conditions comprised 20,000 cells per well in 1% DMSO with test compound concentrations ranging from 50 uM to 0 uM. After 20 hours incubation at 37° C. and 5% CO2, luciferase activity was determined using ONE-Glo™ Luciferase Assay Reagent (E6110, Promega) following the manufacture's recommended procedure. Briefly, 40 uL of ONE-Glo™ luciferase reagents were added to each well and luciferase signals were measured using an Envision 2102 Multilabel Reader. Percentage maximum activity in each test well was calculated based on DMSO (maximum activity) and no cell control wells (baseline activity). The IC50 values of the test compounds were determined from compound dose response curves fitted using a standard four parameter fit equation.
(A reporter such as luciferase makes a cellular process visible.)

[3] abbreviates: ratio of IC50 in 100% serum to IC50 in serum free conditions, approximate.

Read-outs that look alike come from different tables or passages of the source.

T1 sequence (Q99814 whole entry): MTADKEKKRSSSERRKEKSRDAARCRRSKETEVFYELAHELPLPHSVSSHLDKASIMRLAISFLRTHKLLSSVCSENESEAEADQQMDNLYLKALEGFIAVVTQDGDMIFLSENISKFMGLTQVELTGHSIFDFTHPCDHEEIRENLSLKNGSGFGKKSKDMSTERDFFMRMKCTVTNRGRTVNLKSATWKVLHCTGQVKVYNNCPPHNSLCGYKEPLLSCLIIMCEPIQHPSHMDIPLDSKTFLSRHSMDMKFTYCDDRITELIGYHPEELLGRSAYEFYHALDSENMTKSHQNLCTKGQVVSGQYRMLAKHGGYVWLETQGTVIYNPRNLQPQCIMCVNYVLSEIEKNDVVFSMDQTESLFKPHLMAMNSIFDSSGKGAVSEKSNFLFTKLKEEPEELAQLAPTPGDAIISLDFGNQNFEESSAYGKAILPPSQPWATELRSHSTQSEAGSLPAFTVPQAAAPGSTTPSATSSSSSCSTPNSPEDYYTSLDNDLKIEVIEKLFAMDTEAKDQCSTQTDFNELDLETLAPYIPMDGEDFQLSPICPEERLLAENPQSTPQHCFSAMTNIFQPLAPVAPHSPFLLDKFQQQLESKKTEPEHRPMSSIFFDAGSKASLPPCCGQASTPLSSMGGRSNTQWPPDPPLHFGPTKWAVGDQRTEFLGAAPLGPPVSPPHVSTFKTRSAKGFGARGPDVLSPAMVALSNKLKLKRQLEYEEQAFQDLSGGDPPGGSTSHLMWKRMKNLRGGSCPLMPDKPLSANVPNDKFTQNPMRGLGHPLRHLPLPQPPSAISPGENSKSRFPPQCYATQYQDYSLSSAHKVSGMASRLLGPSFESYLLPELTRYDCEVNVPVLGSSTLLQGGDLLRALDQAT

On to `O=S(=O)(CCn1nc(C(F)(F)F)c2c1CCC(F)(F)[C@H]2O)C(F)(F)F` [Example 8, (4S)-5,5-difluoro-3-(trifluoromethyl)-1-[2-(trifluoromethylsulfonyl)ethyl]-6,7-dihydro-4H-indazol-4-ol], for which the IC50 in test [1] is 100 to 1000 nM; in test [2], under 100 nM. Besides, the “Serum Shift (approximate)” value in test [1] (setting [3]) came to 4.

As for `CC(C#N)CCn1nc(C(F)(F)F)c2c1CC(F)(F)[C@H]2O` (stereo partly drawn) [Example 55, 4-[(4S)-5,5-difluoro-4-hydroxy-3-(trifluoromethyl)-4,6-dihydrocyclopenta[c]pyrazol-1-yl]-2-methylbutanenitrile], the IC50 in test [1] and in test [2] was 100 to 1000 nM each time. For the same compound, the “Serum Shift (approximate)” value in test [1] (setting [3]) is given as 1.

On to `CO[C@H](CCn1nc(C(F)(F)F)c2c1CC(F)(F)[C@H]2O)C(F)(F)F` [Example 61, (4S)-5,5-difluoro-1-[(3R)-4,4,4-trifluoro-3-methoxybutyl]-3-(trifluoromethyl)-4,6-dihydrocyclopenta[c]pyrazol-4-ol], for which the IC50 in test [1] and in test [2] was under 100 nM each time.

For the compound `O[C@H]1c2c(C(F)(F)F)nn([C@@H]3CCCC(F)(F)C3)c2[C@@H](F)[C@H]1F` (single isomer, unassigned) [136/137 DIAST-2], the figures for the IC50 in test [1] and in test [2] were 100 to 1000 nM and under 100 nM, respectively. The “Serum Shift (approximate)” value in test [1] (setting [3]) was determined as 7.

In the case of `O[C@H]1c2c(C(F)(F)F)nn(CCCC(F)(F)F)c2[C@H](F)[C@H]1F` [Example 139, (4S,5S,6S)-5,6-difluoro-1-(4,4,4-trifluorobutyl)-3-(trifluoromethyl)-5,6-dihydro-4H-cyclopenta[c]pyrazol-4-ol], the IC50 was over 1000 nM in test [1] and under 100 nM in test [2]. The “Serum Shift (approximate)” value in test [1] (setting [3]) amounted to 6.

Take `O[C@H]1c2c(C(F)(F)F)nn(-c3ccc(F)cc3)c2CC1(F)F` [Example 114, (4S)-5,5-difluoro-1-(4-fluorophenyl)-3-(trifluoromethyl)-4,6-dihydrocyclopenta[c]pyrazol-4-ol]: in test [1], the “Serum Shift (approximate)” value is on record as 27. Moreover, the IC50 in test [1] is over 1000 nM; in test [2], 100 to 1000 nM.

Consider `O[C@H]1c2c(C(F)(F)F)nn([C@H]3CCC[C@@H](F)C3)c2CC1(F)F` (racemic) [90 DIAST-1, (4S)-5,5-difluoro-1-[(rel-1S,3R)-3-fluorocyclohexyl]-3-(trifluoromethyl)-4,6-dihydrocyclopenta[c]pyrazol-4-ol], for which the IC50 in test [1] was 100 to 1000 nM; in test [2], under 100 nM. Besides, the “Serum Shift (approximate)” value in test [1] (setting [3]) turned out to be 6.

Consider `O[C@H]1c2c(C(F)(F)F)nn(CC3CCC(F)(F)CC3)c2CC1(F)F` [Example 113, (4S)-1-[(4,4-difluorocyclohexyl)methyl]-5,5-difluoro-3-(trifluoromethyl)-1H, 4H, 5H, 6H-cyclopenta[c]pyrazol-4-ol], for which the IC50 was over 1000 nM in test [1] and under 100 nM in test [2]. Besides, the “Serum Shift (approximate)” value in test [1] (setting [3]) worked out at 14.

Consider `O[C@H]1c2c(C(F)(F)F)nn(-c3ccc(Cl)cc3)c2CC1(F)F` [Example 116, (4S)-1-(4-chlorophenyl)-5,5-difluoro-3-(trifluoromethyl)-4,6-dihydrocyclopenta[c]pyrazol-4-ol], for which the values for the IC50 in test [1] and in test [2] were over 1000 nM and under 100 nM, respectively. Further, the “Serum Shift (approximate)” value in test [1] (setting [3]) came out at 73.

Regarding `O[C@H]1c2c(C(F)(F)F)nn([C@H]3CCO[C@@H](C(F)(F)F)C3)c2CC1(F)F` (single isomer, unassigned) [94/95 DIAST-1], the IC50 in test [1] was over 1000 nM; in test [2], under 100 nM. Further, in test [1] (setting [3]), the “Serum Shift (approximate)” value is on record as 17.

Take `O=S1(=O)CC(Cn2nc(C(F)(F)F)c3c2CC(F)(F)[C@H]3O)C1` [Example 57, (4S)-1-[(1,1-dioxothietan-3-yl)methyl]-5,5-difluoro-3-(trifluoromethyl)-4,6-dihydrocyclopenta[c]pyrazol-4-ol]: the IC50 in test [1] and in test [2] was 100 to 1000 nM in each case. Further, the “Serum Shift (approximate)” value in test [1] (setting [3]) is recorded as 2.

Turning to `O[C@H]1c2c(C(F)(F)F)nn(CCc3ccsc3)c2CC1(F)F` [Example 76, (4S)-5,5-difluoro-1-(2-thiophen-3-ylethyl)-3-(trifluoromethyl)-4,6-dihydrocyclopenta[c]pyrazol-4-ol], the IC50 is over 1000 nM in test [1] and 100 to 1000 nM in test [2]. In addition, the “Serum Shift (approximate)” value in test [1] (setting [3]) turned out to be 17.

For the compound `CCC(CCn1nc(C(F)(F)F)c2c1CCC(F)(F)[C@H]2O)C(F)(F)F` (stereo partly drawn) [Example 43, (4S)-5,5-difluoro-3-(trifluoromethyl)-1-[3-(trifluoromethyl)pentyl]-6,7-dihydro-4H-indazol-4-ol], the IC50 is over 1000 nM in test [1] and 100 to 1000 nM in test [2]. In test [1] (setting [3]), the “Serum Shift (approximate)” value is on record as 17.

For `O[C@H]1c2c(C(F)(F)F)nn([C@H]3CC[C@H](OC(F)F)C3)c2CC1(F)F` (racemic) [Example 110, (4S)-1-[(1R,3R)-3-(difluoromethoxy)cyclopentyl]-5,5-difluoro-3-(trifluoromethyl)-1H,4H,5H,6H-cyclopenta[c]pyrazol-4-ol and (4S)-1-[(1S,3S)-3-(difluoromethoxy)cyclopentyl]-5,5-difluoro-3-(trifluoromethyl)-1H,4H,5H,6H-cyclopenta[c]pyrazol-4-ol], the IC50 in test [1] was over 1000 nM; in test [2], under 100 nM. Besides, the “Serum Shift (approximate)” value in test [1] (setting [3]) was determined as 225.

Consider `O[C@H]1c2c(C(F)(F)F)nn([C@H]3CC[C@H](F)CC3)c2CC1(F)F` [Example 96, (4S)-5,5-difluoro-1-(4-fluorocyclohexyl)-3-(trifluoromethyl)-4,6-dihydrocyclopenta[c]pyrazol-4-ol], for which the IC50 in test [1] is over 1000 nM; in test [2], under 100 nM. In addition, the “Serum Shift (approximate)” value in test [1] (setting [3]) was determined as 7.

In the case of `O[C@H]1c2c(C(F)(F)F)nn(CCc3cccc(F)c3)c2CC1(F)F` [Example 79, (4S)-5,5-difluoro-1-[2-(3-fluorophenyl)ethyl]-3-(trifluoromethyl)-1H,4H,5H,6H-cyclopenta[c]pyrazol-4-ol], the IC50 was over 1000 nM in test [1] and under 100 nM in test [2]. Further, in test [1] (setting [3]), the “Serum Shift (approximate)” value stood at 13.

In the case of `O[C@H]1c2c(C(F)(F)F)nn(CCSC(F)F)c2CCC1(F)F` [Example 18, (4S)-1-[2-(difluoromethylsulfanyl)ethyl]-5,5-difluoro-3-(trifluoromethyl)-6,7-dihydro-4H-indazol-4-ol], the IC50 in test [1] and in test [2] was 100 to 1000 nM each time. The “Serum Shift (approximate)” value in test [1] (setting [3]) came out at 4.

Regarding `O[C@H]1c2c(C(F)(F)F)nn([C@H]3CC[C@@H](F)[C@@H](F)C3)c2CC1(F)F` (racemic) [91 DIAST-2, (4S)-1-[(rel-1S,3S,4R)-3,4-difluorocyclohexyl]-5,5-difluoro-3-(trifluoromethyl)-4,6-dihydrocyclopenta[c]pyrazol-4-ol], the IC50 is over 1000 nM in test [1] and under 100 nM in test [2]. Moreover, the “Serum Shift (approximate)” value in test [1] (setting [3]) turned out to be 9.

In the case of `O[C@H]1c2c(C(F)(F)F)nn([C@@H]3C[C@@H](F)[C@@H](F)[C@@H](F)C3)c2[C@H](F)C1(F)F` (single isomer, unassigned) [146/147 DIAST-1], the IC50 in test [1] and in test [2] was under 100 nM in each case. The “Serum Shift (approximate)” value in test [1] (setting [3]) is 5.

In the case of `O[C@H]1c2c(C(F)(F)F)nn(-c3ccc(F)c(F)c3)c2CC1(F)F` [Example 115], the IC50 in test [1] is over 1000 nM; in test [2], 100 to 1000 nM. In addition, the “Serum Shift (approximate)” value in test [1] (setting [3]) was determined as 45.
